From patent publication US8557812B2, “Small molecule inhibitors of anti-apoptotic BCL-2 family members and the uses thereof” (The Regents of the University of Michigan, priority 2004, dated 2013)

Key:
Bcl-2 = Bcl-2 (Homo sapiens, UniProt P10415); assay: Fluorescence polarization in vitro Bcl-2 binding assay
Protocol: Bcl-2 used in this assay is a recombinant His-fused soluble protein. […] Inc., Research Triangle Park, N.C.). […] The unlabeled Bid peptide is used as the positive control. The Ki values were calculated using our developed equation for FP assay (Nikolovska-Coleska et al., Anal. Biochem., 2004, in press). The program for calculating a Ki value is available free of charge via the Internet at http://sw16.im.med.umich.edu/software/calc_ki/.

human Bcl-xL = human Bcl-xL (Homo sapiens, UniProt Q07817); assay: Fluorescence polarization in vitro Bcl-xL binding assay; conditions: displacement of Flu-Bak peptide
From the text: For determination of the binding affinity to Bcl-xL protein a human Bcl-xL recombinant His-tagged protein without the C-terminus hydrophobic tail and the Bak-16mer BH3 peptide labeled with 6-carboxyfluorescein succinimidyl ester (FAM) were used.

Sequence of Bcl-2 (P10415 92-205 limits assumed): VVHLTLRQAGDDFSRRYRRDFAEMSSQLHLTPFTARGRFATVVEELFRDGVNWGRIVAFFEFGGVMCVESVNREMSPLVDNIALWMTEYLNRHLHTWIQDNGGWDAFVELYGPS
Sequence of human Bcl-xL (Q07817 1-209 limits assumed): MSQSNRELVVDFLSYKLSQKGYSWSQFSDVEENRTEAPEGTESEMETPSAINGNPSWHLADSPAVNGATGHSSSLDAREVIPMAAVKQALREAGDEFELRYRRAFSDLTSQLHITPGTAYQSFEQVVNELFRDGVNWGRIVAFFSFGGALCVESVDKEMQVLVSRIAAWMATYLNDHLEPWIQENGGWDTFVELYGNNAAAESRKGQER

IC50 (Bcl-2) [µM] | IC50 (human Bcl-xL) [µM] | Structure (SMILES)
≤ 1 | > 1 | O=C(c1cc(S(=O)(=O)N2CCc3ccccc3C2)c(O)c(O)c1O)N1CCc2ccc(S(=O)(=O)NCCc3ccc(Cl)cc3)cc2C1 [TM-1209]
 | > 1 | Oc1c(CCc2ccccc2)cc(Cc2ccc(Oc3ccccc3)cc2)c(O)c1O [TM-162]
≤ 1 | > 1 | O=C(c1cc(S(=O)(=O)N2CCc3ccccc3C2)c(O)c(O)c1O)N1CCc2ccc(S(=O)(=O)NCCc3cccc(Oc4ccccc4)c3)cc2C1 [TM-1211]
≤ 1 | > 1 | O=C(c1cc(S(=O)(=O)N2CCc3ccccc3C2)c(O)c(O)c1O)N1CCc2ccc(S(=O)(=O)NCCCc3ccccc3)cc2C1 [TM-1213]
> 1 |  | O=C(Nc1ccc(S(=O)(=O)N2CCN(c3ccccc3)CC2)cc1)c1cc(S(=O)(=O)N2CCc3ccccc3C2)cc(O)c1O [TW-163]
> 1 |  | O=C(Nc1cccc(S(=O)(=O)c2ccccc2)c1)c1cc(CCc2ccccc2)c(O)c(O)c1O [TW-21, N-(3-Benzenesulfonyl-phenyl)-2,3,4-trihydroxy-5-phenethyl-benzamide]
> 1 |  | CC(C)(C)c1ccc(CNC(=O)c2cc(CCc3ccccc3)c(O)c(O)c2O)cc1 [TW-25, N-(4-tert-Butyl-benzyl)-2,3,4-trihydroxy-5-phenethyl-benzamide]
≤ 1 |  | CC(C)(C)c1ccccc1S(=O)(=O)c1ccc(NC(=O)c2cc(S(=O)(=O)NCCCc3ccccc3)cc(O)c2O)cc1 [TW-159]
> 1 |  | CC(C)(C)c1ccc(CCc2cc(O)c(O)c(C(=O)Nc3ccc(S(=O)(=O)N4CCC(Cc5ccccc5)CC4)cc3)c2)cc1 [TW-170]
> 1 |  | CC(C)(C)c1ccc(-c2cc(Cc3ccccc3)c(O)c(O)c2O)cc1 [TW-3, 5-Benzyl-4′-tert-butyl-biphenyl-2,3,4-triol]
> 1 |  | CC(C)(C)c1ccc(CCc2cc(O)c(O)c(C(=O)Nc3ccc(S(=O)(=O)N4CCN(c5ccccc5)CC4)cc3)c2)cc1 [TW-167]
> 1 |  | Cc1ccccc1NC(=O)c1cc(CCc2ccccc2)c(O)c(O)c1O [TW-28]

Second part, the compound before the results:

Structure (SMILES) | IC50 (Bcl-2) [µM] | IC50 (human Bcl-xL) [µM]
O=C(c1cc(S(=O)(=O)N2CCc3ccccc3C2)c(O)c(O)c1O)N1CCc2ccc(S(=O)(=O)N[C@@H](Cc3ccccc3)C(=O)N3CCN(C(=O)C(F)(F)F)CC3)cc2C1 [TM-1202] | > 1 | > 1
O=C(c1cc(S(=O)(=O)N2CCc3ccccc3C2)c(O)c(O)c1O)N1CCc2ccccc2C1 [TM-1214] | > 1 | > 1
O=C(c1ccc(Oc2ccccc2)cc1)c1cc(C(=O)c2nc3ccccc3o2)c(O)c(O)c1O [TM-183] |  | > 1
NC(=O)[C@H](Cc1ccccc1)NS(=O)(=O)c1ccc2c(c1)CN(C(=O)c1cc(S(=O)(=O)N3CCc4ccccc4C3)c(O)c(O)c1O)CC2 [TM-199] | > 1 | > 1
O=C(c1ccc(Oc2ccc(S(=O)(=O)N3CCCCC3)c(Cl)c2)cc1)c1cc(C(=O)c2nc3ccccc3s2)c(O)c(O)c1O [TM-180] |  | > 1
Oc1c(CCCc2ccccc2)cc(Cc2ccc(Oc3ccccc3)cc2)c(O)c1O [TM-163] |  | > 1
CCCCCCCCCCCc1ccc(-c2cc(CCc3ccc(C(C)(C)C)cc3)c(O)c(O)c2O)cc1 [TW-7, 5-[2-(4-tert-Butyl-phenyl)-ethyl]-4′-unedcyl-biphenyl-2,3,4-triol] | > 1 | 
CCCCCCCCCCCc1ccc(-c2cc(Cc3ccccc3C(C)C)c(O)c(O)c2O)cc1 [TW-14, 5-(2-Isopropyl-benzyl)-4′-undecyl-biphenyl-2,3,4-triol] | > 1 | 
CC(C)c1cc(Cc2ccc(Oc3ccccc3)cc2)c(O)c(O)c1O [TM-159] |  | > 1
O=C(c1ccc(Oc2ccccc2)cc1)c1cc(C(=O)c2nc3ccccc3s2)c(O)c(O)c1O [TM-179] |  | > 1
CC(C)c1ccccc1Cc1cc(C(=O)Nc2ccccc2Cl)c(O)c(O)c1O [TW-53, N-(2-Chloro-phenyl)-2,3,4-trihydroxy-5-(2-iso-propyl-benzyl)-benzamide] | > 1 | 
Oc1ccc(Cc2ccc(Oc3ccccc3)cc2)c(O)c1O [TM-157] |  | > 1
